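Where inhibition never reached the appropriate level, the endpoint shown equals the highest concentration tested. Otherwise, values were interpolated linearly from a five-concentration, 48-hour dose response in 96-well plates. At the GI50, growth is halved.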 Activity calls are given as the source filed them. Rule as the data show it: active = GI50 up to about 1.1 µM and inactive = higher.
Assays:
Test in all cases: NCI anticancer screen, dose series, 48 h
[1] = tested on: OVCAR-5
[2] = tested on: MDA-N
[3] = tested on: SK-OV-3
[4] = tested on: 786-0
[5] = tested on: Malme-3M
[6] = tested on: K562
[7] = tested on: EKVX
[8] = tested on: LOX IMVI
[9] = tested on: ACHN
[10] = tested on: HOP-92
[11] = tested on: NCI-H226
[12] = tested on: OVCAR-4
[13] = tested on: T47D
[14] = tested on: DU-145
[15] = tested on: BT-549
[16] = tested on: RXF 393
[17] = tested on: NCI-H23
[18] = tested on: NCI/ADR-RES
[19] = tested on: SNB-75
[20] = tested on: SF-268
[21] = tested on: MCF7
[22] = tested on: SK-MEL-5
[23] = tested on: SF-295
[24] = tested on: SK-MEL-28
[25] = tested on: PC-3
[26] = tested on: CCRF-CEM
[27] = tested on: HCT-116
[28] = tested on: RPMI-8226
[29] = tested on: SW-620
[30] = tested on: TK-10
[31] = tested on: IGROV-1
[32] = tested on: COLO 205
[33] = tested on: SR
[34] = tested on: UACC-257
[35] = tested on: SK-MEL-2
[36] = tested on: CAKI-1
[37] = tested on: A549
[38] = tested on: OVCAR-8
[39] = tested on: MOLT-4
[40] = tested on: OVCAR-3
[41] = tested on: HOP-62
[42] = tested on: HL-60
[43] = tested on: Hs-578T
[44] = tested on: SF-539
[45] = tested on: MDA-MB-231
[46] = tested on: NCI-H460
[47] = tested on: NCI-H522
[48] = tested on: M14
[49] = tested on: A498
[50] = tested on: HT-29
[51] = tested on: U-251
[52] = tested on: UO-31
[53] = tested on: HCC 2998
[54] = tested on: HCT-15
[55] = tested on: KM12
[56] = tested on: MDA-MB-435
[57] = tested on: SNB-19
[58] = tested on: SN12C
[59] = tested on: UACC-62

## S=C(N/N=C(\c1ccccc1)c1ccccn1)NC1CCCCC1
[1]
  GI50: > 88.1 µM (inactive)
[2]
  GI50: 78.7 µM (inactive)
[3]
  GI50: 11.5 µM (inactive)
[4]
  GI50: 18 µM (inactive)
[5]
  GI50: 1.32 µM (inactive)
[6]
  GI50: 0.5 µM (active)
[7]
  GI50: 1.4 µM (inactive)
[8]
  GI50: 2.61 µM (inactive)
[9]
  GI50: 0.571 µM (active)
[10]
  GI50: > 100 µM (inactive)
[11]
  GI50: 3.85 µM (inactive)
[12]
  GI50: 7.91 µM (inactive)
[13]
  GI50: 3.48 µM (inactive)
[14]
  GI50: 29.3 µM (inactive)
[15]
  GI50: 23.4 µM (inactive)
[16]
  GI50: > 100 µM (inactive)
[17]
  GI50: 1.6 µM (inactive)
[18]
  GI50: 0.423 µM (active)
[19]
  GI50: 65.3 µM (inactive)
[20]
  GI50: 2.66 µM (inactive)
[21]
  GI50: 0.433 µM (active)
[22]
  GI50: 13.1 µM (inactive)
[23]
  GI50: 26.5 µM (inactive)
[24]
  GI50: 46.1 µM (inactive)
[25]
  GI50: 1.4 µM (inactive)
[26]
  GI50: 0.322 µM (active)
[27]
  GI50: 0.566 µM (active)
[28]
  GI50: 2.16 µM (inactive)
[29]
  GI50: 1.19 µM (inactive)
[30]
  GI50: 0.849 µM (active)
[31]
  GI50: 0.31 µM (active)
[32]
  GI50: 0.543 µM (active)
[33]
  GI50: > 26.1 µM (inactive)
[34]
  GI50: 2.24 µM (inactive)
[35]
  GI50: > 94.6 µM (inactive)
[36]
  GI50: 0.834 µM (active)
[37]
  GI50: 13.9 µM (inactive)
[38]
  GI50: 0.34 µM (active)
[39]
  GI50: 0.54 µM (active)
[40]
  GI50: 2.75 µM (inactive)
[41]
  GI50: 12.2 µM (inactive)
[42]
  GI50: 0.16 µM (active)
[43]
  GI50: > 35 µM (inactive)
[44]
  GI50: 3.08 µM (inactive)
[45]
  GI50: 1.57 µM (inactive)
[46]
  GI50: 3.36 µM (inactive)
[47]
  GI50: 1.94 µM (inactive)
[48]
  GI50: 1.16 µM (inactive)
[49]
  GI50: > 100 µM (inactive)
[50]
  GI50: 0.274 µM (active)
[51]
  GI50: 0.979 µM (active)
[52]
  GI50: 12.9 µM (inactive)
[53]
  GI50: > 61.4 µM (inactive)
[54]
  GI50: 1.02 µM
[55]
  GI50: 13.1 µM (inactive)
[56]
  GI50: 31.6 µM (inactive)
[57]
  GI50: 39.7 µM (inactive)
[58]
  GI50: 0.804 µM (active)
[59]
  GI50: > 29.8 µM (inactive)

## CCOP(=O)(OCC)C(c1ccccc1)N(C(=O)NC(F)(F)F)c1ccc(C)cc1 (stereo not drawn)
[1]
  GI50: > 100 µM (inactive)
[2]
  GI50: > 100 µM (inactive)
[3]
  GI50: > 100 µM (inactive)
[4]
  GI50: > 100 µM (inactive)
[5]
  GI50: > 100 µM (inactive)
[6]
  GI50: > 100 µM (inactive)
[7]
  GI50: > 100 µM (inactive)
[8]
  GI50: > 100 µM (inactive)
[9]
  GI50: > 100 µM (inactive)
[10]
  GI50: 19.1 µM (inactive)
[11]
  GI50: > 100 µM (inactive)
[12]
  GI50: > 100 µM (inactive)
[13]
  GI50: 83.4 µM (inactive)
[14]
  GI50: > 100 µM (inactive)
[15]
  GI50: > 100 µM (inactive)
[16]
  GI50: > 100 µM (inactive)
[17]
  GI50: > 100 µM (inactive)
[18]
  GI50: > 100 µM (inactive)
[19]
  GI50: > 100 µM (inactive)
[20]
  GI50: > 100 µM (inactive)
[21]
  GI50: > 100 µM (inactive)
[22]
  GI50: > 100 µM (inactive)
[23]
  GI50: > 100 µM (inactive)
[24]
  GI50: > 100 µM (inactive)
[25]
  GI50: > 100 µM (inactive)
[26]
  GI50: > 100 µM (inactive)
[27]
  GI50: > 100 µM (inactive)
[28]
  GI50: > 100 µM (inactive)
[29]
  GI50: > 100 µM (inactive)
[30]
  GI50: > 100 µM (inactive)
[31]
  GI50: > 100 µM (inactive)
[32]
  GI50: > 100 µM (inactive)
[33]
  GI50: > 100 µM (inactive)
[34]
  GI50: > 100 µM (inactive)
[35]
  GI50: > 100 µM (inactive)
[36]
  GI50: > 100 µM (inactive)
[37]
  GI50: > 100 µM (inactive)
[38]
  GI50: > 100 µM (inactive)
[39]
  GI50: > 100 µM (inactive)
[40]
  GI50: > 100 µM (inactive)
[41]
  GI50: > 100 µM (inactive)
[42]
  GI50: > 100 µM (inactive)
[43]
  GI50: 69.5 µM (inactive)
[44]
  GI50: > 100 µM (inactive)
[45]
  GI50: > 100 µM (inactive)
[46]
  GI50: > 100 µM (inactive)
[47]
  GI50: > 100 µM (inactive)
[48]
  GI50: > 100 µM (inactive)
[49]
  GI50: > 100 µM (inactive)
[50]
  GI50: > 100 µM (inactive)
[51]
  GI50: > 100 µM (inactive)
[52]
  GI50: > 100 µM (inactive)
[53]
  GI50: > 100 µM (inactive)
[54]
  GI50: > 100 µM
[55]
  GI50: > 100 µM (inactive)
[56]
  GI50: > 100 µM (inactive)
[57]
  GI50: > 100 µM (inactive)
[58]
  GI50: > 100 µM (inactive)
[59]
  GI50: > 100 µM (inactive)
